Patent publication US4551460A, “Pyrido[2,1-b]quinazoline derivatives useful as agents for treatment of allergic conditions and vascular disorders involving thrombosis” (priority 1983, dated 1985)
Where two headings read alike, the source gives them in different places.

What was measured:
[1] = tested on: leukotriene E induced bronchoconstriction; experiment: Guinea pig bronchoconstriction, in vivo (aerosol); parameters: species or system guinea pig (Hartly strain); conditions: aerosol at concentration inhibiting bronchoconstriction by 80%
Experimental: (c) Guinea Pig Bronchoconstriction, In Vivo (Aerosol):
Male guinea pigs (Hartly strain) weighing 300 to 500 g are anesthetized with urethane (2 g/kg) intraperitoneally and a polyethylene cannula is inserted into the jugular vein for drug administration. Tracheal pressure is recorded from a cannula inserted in the trachea and connected to a Statham pressure transducer. After surgical preparation of the animals, a period of time is allowed for pulmonary functions to stabilize. The test compound is administered according to the following protocol. Propranolol (0.1 mg/kg) is administered intravenously while the animals breathed spontaneously. Five minutes thereafter, the animals are exposed for a five minute period to a 1% (w/v) aerosol solution of test compound (adjusted to an alkaline pH where necessary for drug solubilization) or to distilled water of the appropriate pH (for control purposes). A Monaghan (Model 750) ultrasonic nebulizer is used to administer all test compounds by inhalation. The nebulizer ultrasonic frequency is adjusted to produce particles in the 1-8μ diameter range (average 3μ). Aqueous solutions are prepared fresh and introduced into the chamber of the nebulizer. The output of the nebulizer is made available to the animal by directing a bias flow of aerosol through a y tube connected to the tracheal cannula. At the end of the exposure period, the animals are paralyzed with succinylcholine (1.2 mg/kg, i.v.) and mechanically respirated (Harvard rodent respirator) at 40 breaths/minute and 2.5 cc tidal volume. Animals are then challenged with a maximum constrictory dose of leukotriene E delivered intravenously 30 seconds after administration of the succinylcholine.
The change (cm H2 O) between pre and peak ventilatory pressure readings is averaged for three control animals and five drug treated animals. The percent inhibition is calculated from the following formula:
(Control-Drug Tested/Control)×100
When various drug concentrations are tested, the percent inhibition at each concentration is plotted as log concentration (abscissa) versus percent inhibition (ordinate) and the IC50 is determined from linear regression analysis.
In order to determine the aerosol half-life (t 1/2), the animals are prepared as described above, except that the time between aerosol exposure and challenge with leukotriene E is varied. All compounds are administered at the concentration necessary to inhibit leukotriene-induced bronchoconstriction by 80%. Biological half-life is calculated from plots of time (abscissa) versus log percent inhibition (ordinate).

[2] = tested on: acetylcholine-induced constriction in guinea pig ilea; experiment: Antagonism of acetylcholine-induced constriction in guinea pig ilea; conditions: 5.0×10^-7 M acetylcholine; read-out: IC50 antagonism of acetylcholine-induced constrictions
Experimental: (e) Antagonism of Acetylcholine-induced Constriction in Guinea Pig Ilea
Anticholinergic activity was determined on a segment of guinea pig ileum that was suspended in a 37° C. bath of oxygenated Tyrodes solution. At 4 minute intervals, the ileum was challenged with 5.0×10^-7 M acetylcholine for sufficient time to produce a peak contraction and then washed with fresh Tyrodes solution. After the tissue response to acetylcholine had stablized, the ileum was pretreated with the standard anticholinergic, atropine sulfate, for 1 minute prior to rechallenge with acetylcholine, the contraction recorded and the tissue washed with Tyrodes solution. […] The IC50 for atropine was 1×10^-8 M. THe IC50 's for test drugs were determined by this same procedure.

[3] = tested on: leukotriene E induced bronchoconstriction; experiment: LTE-induced bronchoconstriction in guinea pigs, in vivo (i.v. / oral); parameters: species or system guinea pig (Hartley strain); conditions: Cavia porcellus, read-out: ID50 (the source's name)
[4] = tested on: cutaneous anaphylaxis in passively sensitized rats; experiment: Inhibition of allergic mediator release in the rat passive cutaneous anaphylaxis test; assay type: in vivo, rat (Sprague-Dawley); conditions: po, p.o., read-out: ID50 inhibition of allergic mediator release (PCA test)
Experimental: (i) Inhibition of Cutaneous Anaphylaxis in Passively Sensitized Rats
(l) Preparation of Antiserum
IgE-containing rat antiserum (reaginic antiserum) was prepared according to the following procedure. Normal, male Sprague-Dawley rats (150-200 g) obtained from Charles River Laboratories, Wilmington, Mass., were immunized by an intraperitoneal injection of 0.5 ml Bordetella pertussis vaccine (Cannaught Laboratories, Willowdale, Toronto, Canada, 20 ou/ml) containing 100 μg egg albumin (Nutritional Biochemical Corp., Cleveland, Ohio). On day 16, Nippostrongylus brasiliensis (3000 larvae/0.1 ml) was administered subcutaneously and on day 21, 10 μg of egg albumin was administered intraperitoneally in 0.5 ml normal saline. On day 30, blood was collected by heart puncture and the serum was separated by centrifugation and refrigerated overnight at 5° C. […]
The passive cutaneous anaphylaxis (PCA) test was performed on 190-220 g male Sprague-Dawley rats (Charles River Breeding Laboratories, Wilmington, Mass.), in a manner similar to that described by J. Goose and A.M.J.N. Blair, Immunology, 16, 749(1969). […] The long and short axis of each wheal was measured with a metric vernier caliper and the average diameter was obtained for each reaction. […] The ID50 was calculated by the method of J. Berkson, J.Am.Stat.Assoc., 48, 565(1953).

[5] = LD50 in mice (acute toxicity); conditions: mouse, in vivo
[6] = po, orally (2 hours pretreatment)

CC(C)c1ccc2nc3ccc(C(=O)NCCCCn4ccnc4)cn3c(=O)c2c1 [Compound A, N-[4-(1H-imidazol-1-yl)butyl]-2-(1-methylethyl)-11-oxo-11H-pyrido[2,1-b]quinazoline-8-carboxamide]
Biological half-life [1]: 56 min
IC50 [2]: 5 µM
ED50 ([3]; iv): 0.9 mg/kg
ED50 [3, 6]: 47 mg/kg
ED50 ([4]; 10 min, 10 minute pretreatment): 20 mg/kg
LD50 ([5]; ip, intraperitoneally): 22 mg/kg
LD50 ([5]; po, orally): 775 mg/kg

CC(C)c1ccc2nc3ccc(C(=O)NCCCCc4cccnc4)cn3c(=O)c2c1 [Compound B, 2-(1-methylethyl)-N-[4-(3-pyridyl)butyl]-11-oxo-11H-pyrido[2,1-b]quinazoline-8-carboxamide]
Biological half-life [1]: 7 min
IC50 [2]: 7 µM
ED50 ([3]; iv): 0.3 mg/kg
ED50 [3, 6]: 60 mg/kg
ED50 ([4]; 5 min, 5 minute pretreatment): 21 mg/kg
LD50 ([5]; po, orally): > 1000 mg/kg
